Test results: patent US8961930B2, “Isatin derivatives for use as in vivo imaging agents” (Imperial Innovations Limited, priority 2008, dated 2015)

What was measured:
RIF-1 cells = test: In vitro [^18F]11 uptake in RIF-1 cells; format: cell-based, murine
Text: (§1) The human ovarian carcinoma cell lines PEO1/4 were established and characterised as described in Wolf C. R. et al.^22 and Langdon S. P. et al^23. Briefly, PEO1/4 cells were derived from the malignant ascites of a patient with a recurrent mucinous ovarian adenocarcinoma, before (PEO1) and after (PEO4) the onset of a clinical resistance to cisplatin chemotherapy in this patient. The radiation-induced murine fibrosarcoma (RIF-1) tumour cell line was originally characterised by Twentyman P. R. et al.^20. The LNM35 tumour cells are a highly lymphogenous metastatic subline of the human large pulmonary carcinoma NCI-H460 cell line, as described in Kozaki K. et al.^24. […]
Cells were plated in triplicate in 12-well plates 2 or 3 days prior to the experiments and treated with the antineoplastic platinum-derived drug Cisplatin, 5-FU, the protein synthesis inhibitor cycloheximide (CHX) or the topoisomerase inhibitor etoposide (VP-16) (Sigma, UK) or corresponding vehicle at the indicated concentration and time. […] 260 μL of each sample were transferred in counting tubes and Fluorine-18 radioactivity was immediately determined using a Packard Cobra II gamma counter (Perkin Elmer, UK). […] BCA Protein assay (Pierce, UK) was performed for all samples and datas are normalized and expressed as CCPMA or RLU (Relative Light Unit)/mg of protein. […]

LNM35 cells = test: In vitro [^18F]11 uptake in LNM35 cells; format: cell-based, human; settings: 100 μM CDDP or VP-16, 60 min uptake
Text: as §1
Cells were plated in triplicate in 12-well plates 2 or 3 days prior to the experiments and treated with the antineoplastic platinum-derived drug Cisplatin, 5-FU, the protein synthesis inhibitor cycloheximide (CHX) or the topoisomerase inhibitor etoposide (VP-16) (Sigma, UK) or corresponding vehicle at the indicated concentration and time. […] 260 μL of each sample were transferred in counting tubes and Fluorine-18 radioactivity was immediately determined using a Packard Cobra II gamma counter (Perkin Elmer, UK). […] BCA Protein assay (Pierce, UK) was performed for all samples and datas are normalized and expressed as CCPMA or RLU (Relative Light Unit)/mg of protein.

Structure (SMILES): O=C1C(=O)N(Cc2cn(CC[18F])nn2)c2ccc(S(=O)(=O)N3CCC[C@H]3COc3ccc(F)cc3F)cc21 [[^18F]11, (S)-1-((1-(2-Fluoroethyl)-1H-[1,2,3]-triazol-4-yl)methyl)-5-(2(2,4-difluorophenoxymethyl)-pyrrolidine-1-sulfonyl)isatin]
- increase in uptake in apoptotic cells (RIF-1 cells; CDDP 100 μM 48 h vs vehicle, 1 h incubation): ~1.5 fold
- [^18F]11 uptake in drug-treated cells compared to control (RIF-1 cells; CDDP or CHX 10 μg/mL 24 h, 60 min uptake): significantly increased
- [^18F]11 uptake in drug-treated cells compared to control (LNM35 cells): significantly increased
